These compounds were tested on polyglutamine-induced caspase-3 activation, cell assay (assay: blockers of polyQ-driven CASP3 activation – cell-based (AID 1583)).

Row | Structure (SMILES) | EC50
1 | CC(=O)O[C@H]1C[C@H](O[C@H]2[C@@H](O)C[C@H](O[C@H]3[C@@H](O)C[C@H](O[C@H]4CC[C@@]5(C)C(CCC6C5C[C@@H](O)[C@]5(C)[C@@H](C7=CC(=O)OC7)CC[C@]65O)C4)O[C@@H]3C)O[C@@H]2C)O[C@H](C)[C@H]1O[C@@H]1O[C@H](CO)[C@@H](O)[C@H](O)[C@H]1O (some centres undefined) | 7.47 µM
2 | O[N+]1=CC=CCC1=S.On1ccccc1=S.[Zn] | 0.855 µM
3 | C[C@]12CCC3C(CC[C@]4(O)C[C@@H](O)CC[C@]34C=O)[C@@]1(O)CCC2C1=CC(=O)OC1 (some centres undefined) | 1.68 µM
4 | C[C@@]1(C(=O)O)CC[C@]2(C)CC[C@]3(C)C4=CC=C5C=C(O)C(=O)C=C5[C@]4(C)CC[C@@]3(C)[C@@H]2C1 | 4.63 µM
5 | C[C@H]1O[C@@H](O[C@H]2[C@@H](O)C[C@H](O[C@H]3[C@@H](O)C[C@H](O[C@H]4CC[C@]5(C)C6CC[C@]7(C)[C@@H](C8=CC(=O)OC8)CC[C@]7(O)C6CC[C@@H]5C4)O[C@@H]3C)O[C@@H]2C)C[C@H](O)[C@@H]1O (some centres undefined) | 0.189 µM
6 | CCCCC(CC)CN=C(N)NC(N)=NCCCCCCN=C(N)NC(N)=NCC(CC)CCCC (centres undefined) | 1.67 µM
7 | CC(=O)[O][Hg][c]1ccccc1 | 1.74 µM
8 | CO[C@H]1[C@H](O)[C@H](O[C@H]2CC[C@]3(C)C4CC[C@]5(C)C(C6=CC(=O)OC6)CC[C@]5(O)C4CC[C@@H]3C2)O[C@@H](C)[C@@H]1O (some centres undefined) | 0.0786 µM
9 | CO[C@H]1[C@H](O)[C@@H](O[C@H]2CC[C@]3(C=O)C4CC[C@]5(C)[C@@H](C6=CC(=O)OC6)CC[C@]5(O)C4CC[C@@H]3C2)O[C@@H](C)[C@@H]1O (some centres undefined) | 0.0932 µM

Source: PubChem BioAssay AID1583 (NINDS Approved Drug Screening Program, 2009)
